In assay [1] the test system is Trypanosome (T. brucei brucei). The assay can be described thus: In-vitro antitrypanosomal efficacy assay (cell growth, resazurin). The format is cell-based. Conditions: T. brucei cell growth. On the technique in general: Resazurin is reduced to fluorescent resorufin, in cell work by metabolically active cells.
Experimental: To column 12, 200 μl media was added to provide a no cells control. Plates were then incubated at 37° C. in an atmosphere of 5% CO2 for 69 hours, before the addition of 20 μl of 500 μM rezasurin solution, and a further incubation period of 4 hours. […] Concentration effect curves were fitted using non-linear regression using XLFit 4.2 and EC50 values determined.
The target in assay [2] is T. brucei N-myristoyl transferase (Trypanosoma brucei brucei (strain 927/4 GUTat10.1), UniProt Q388H8). Description: biochemical. Particulars: value printed without enzyme tag in the NMT Enzyme column (taken as T. brucei NMT); read-out: IC50 (μM) NMT Enzyme. The format is biochemical.
Sequence of T. brucei N-myristoyl transferase (Q388H8 1-446): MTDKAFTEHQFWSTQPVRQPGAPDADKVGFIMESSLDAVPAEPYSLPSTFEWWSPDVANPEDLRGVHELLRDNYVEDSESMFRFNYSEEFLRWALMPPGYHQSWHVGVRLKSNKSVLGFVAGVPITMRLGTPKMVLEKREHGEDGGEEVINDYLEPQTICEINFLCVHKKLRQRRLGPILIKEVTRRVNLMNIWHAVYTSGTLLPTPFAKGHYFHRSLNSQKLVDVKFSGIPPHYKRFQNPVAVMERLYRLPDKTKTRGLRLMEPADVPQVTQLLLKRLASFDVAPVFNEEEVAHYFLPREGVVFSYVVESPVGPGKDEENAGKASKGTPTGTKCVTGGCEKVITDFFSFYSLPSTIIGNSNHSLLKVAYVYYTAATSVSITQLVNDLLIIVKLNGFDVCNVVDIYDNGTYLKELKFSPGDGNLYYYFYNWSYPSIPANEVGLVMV

This is an account of results in patent publication US9156811B2 (priority 2008, dated 2015).

The structures appear in SMILES notation.

As usually defined, the IC50 is the point on the concentration scale where inhibition reaches its midpoint. As to `Cc1nn(C)c(C)c1N[S+](=O)([O-])c1ccc(NCCc2ccc(-c3ccccc3)cc2)nc1` [DDD73482], the “ED50 (μM) T. brucei” value in assay [1] is greater than 1 µM. Further, the IC50 in assay [2] was 60 µM.
For the molecule `Cc1nn(C)c(C)c1N[S+](=O)([O-])c1ccc(Nc2ccc(Oc3ccccc3)cc2)nc1` [DDD73483], in assay [1], the “ED50 (μM) T. brucei” value is greater than 1 µM. Also, in assay [2], the IC50 is greater than 100 µM.
Consider `Cc1nn(C)c(C)c1N[S+](=O)([O-])c1c(Cl)cc(C#Cc2cncn2C)cc1Cl` [DDD73484], for which the “ED50 (μM) T. brucei” value in assay [1] worked out at 3.1 µM. The IC50 in assay [2] was 0.67 µM.
On the same counts, the results for `Cc1nn(C)c(C)c1N[S+](=O)([O-])c1c(Cl)cc(C#Cc2ccccc2)cc1Cl` [DDD73485] are greater than 1 µM and 34.3 µM.
For the molecule `Cc1nn(C)c(C)c1N[S+](=O)([O-])c1ccc(N[C@H](C)c2ccc3ccccc3c2)nc1` [DDD73486], the “ED50 (μM) T. brucei” value in assay [1] is greater than 1 µM. For the same molecule, in assay [2], the IC50 was determined as 2.8 µM.
For `Cc1nn(C)c(C)c1N[S+](=O)([O-])c1ccc(NCc2ccn(C)n2)nc1` [DDD73487], in that order: 14.2 µM and 1.2 µM.
On to `Cc1nn(C)c(C)c1N[S+](=O)([O-])c1ccc(NCCc2ccc3ccccc3c2)nc1` [DDD73489], for which the “ED50 (μM) T. brucei” value in assay [1] is greater than 1 µM. The IC50 in assay [2] was 12.4 µM.
In the case of `CCCn1nc(C)c(N[S+](=O)([O-])c2c(C)cc(OC)c(C)c2C)c1C` [DDD73491], in assay [1], the “ED50 (μM) T. brucei” value was greater than 1 µM. Besides, the IC50 in assay [2] worked out at 28.4 µM.
On to `Cc1nn(C)c(C)c1N[S+](=O)([O-])c1ccc(NCC(c2ccccc2)c2ccccc2)nc1` [DDD73492], for which the “ED50 (μM) T. brucei” value in assay [1] was greater than 1 µM. For the same molecule, the IC50 in assay [2] worked out at 13.6 µM.
On the same counts, the results for `Cc1cnn(-c2ccc(CNc3ccc([S+](=O)([O-])Nc4c(C)nn(C)c4C)cn3)cc2)n1` [DDD73493] are greater than 1 µM and 4.4 µM.
On to `Cc1nn(C)c(C)c1N[S+](=O)([O-])c1ccc(NCc2ccc(-n3ccnc3C)cc2)nc1` [DDD73494], for which the “ED50 (μM) T. brucei” value in assay [1] is 8.8 µM. For the same molecule, in assay [2], the IC50 came out at 0.71 µM.
For the molecule `Cc1nn(C)c(C)c1N[S+](=O)([O-])c1ccc(NCC(C)c2ccccc2)nc1` (stereo not drawn) [DDD73495], in assay [1], the “ED50 (μM) T. brucei” value came out at 7.8 µM. Further, in assay [2], the IC50 is 0.96 µM.
On the same counts, the results for `COc1cc(C)c([S+](=O)([O-])Nc2c(C)nn(CCc3ccccc3)c2C)c(C)c1C` [DDD73496] are greater than 1 µM and greater than 100 µM.
On the same counts, the results for `COc1cc(C)c([S+](=O)([O-])Nc2c(C)nn(C(C)C)c2C)c(C)c1C` [DDD73497] are greater than 1 µM and greater than 100 µM.
In the case of `Cc1nn(C)c(C)c1N[S+](=O)([O-])c1ccc(COc2ccc(C(C)(C)c3ccccc3)cc2)cc1` [DDD73499], the “ED50 (μM) T. brucei” value in assay [1] is greater than 1 µM. For the same molecule, in assay [2], the IC50 was greater than 100 µM.
As for `COc1cc(NCc2ccc([S+](=O)([O-])Nc3c(C)nn(C)c3C)cc2)cc(OC)c1OC` [DDD73501], the “ED50 (μM) T. brucei” value in assay [1] is greater than 1 µM. The IC50 in assay [2] was determined as 19 µM.
As to `Cc1nn(C)c(C)c1N[S+](=O)([O-])c1ccc(CNc2ccc(Oc3ccccc3)cc2)cc1` [DDD73502], the “ED50 (μM) T. brucei” value in assay [1] is greater than 1 µM. Besides, in assay [2], the IC50 was 4.8 µM.
On the same counts, the results for `Cc1nn(C)c(C)c1N[S+](=O)([O-])c1ccc(Cn2cnc(-c3ccccc3)c2)cc1` [DDD73503] are 10.5 µM and 2.5 µM.
As to `Cc1nn(C)c(C)c1N[S+](=O)([O-])c1ccc(CNc2ccncn2)cc1` [DDD73504], the “ED50 (μM) T. brucei” value in assay [1] is greater than 1 µM. In assay [2], the IC50 came to 4.2 µM.
In the case of `Cc1nn(C)c(C)c1N[S+](=O)([O-])c1ccc(CNc2ccc(C(C)C)cc2)cc1` [DDD73505], the “ED50 (μM) T. brucei” value in assay [1] was greater than 1 µM. Further, the IC50 in assay [2] was 9.7 µM.
On the same counts, the results for `Cc1nn(C)c(C)c1N[S+](=O)([O-])c1ccc(CNc2ccc(N3CCOCC3)cc2)cc1` [DDD73506] are greater than 1 µM and 10 µM.
